Reference: US6596718B1, “7-Morpholin-4yl-benzothiazole amide derivatives” (Hoffmann-La Roche Inc., priority 2001, dated 2003)

| melting point [°C] | Compound |
| --- | --- |
| 173 to 174 | COc1ccc(N2CCOCC2)c2sc(C(=O)NCc3ccc(C)o3)nc12 [Example 70, 4-Methoxy-7-morpholin-4-yl-benzothiazole-2-carboxylic acid (5-methyl-furan-2-ylmethyl)-amide] |
| 206 to 208 | COc1ccc(N2CCOCC2)c2sc(C(=O)NCC(=O)c3ccc4c(c3)OCCO4)nc12 [Example 75, 4-Methoxy-7-morpholin-4-yl benzothiazole-2-carboxylic acid [2-(2,3-dihydro-benzo[1,4]dioxin-6-yl)-2-oxo-ethyl]-amide] |
| 110 to 115 | COc1ccc(N2CCOCC2)c2sc(C(=O)N[C@H]3CCCC[C@@H]3O)nc12 (stereo in doubt) [Example 72, 4-Methoxy-7-morpholin-4-yl-benzothiazole-2-carboxylic acid (2-hydroxy-cyclohexyl)-amide] |
| 164 to 168 | COc1ccc(CNC(=O)c2nc3c(OC)ccc(N4CCOCC4)c3s2)cc1 [Example 26, 4-Methoxy-7-morpholin-4-yl-benzothiazole-2-carboxylic acid 4-methoxy-benzylamide] |
| 69 to 71 | COc1ccc(CCNC(=O)c2nc3c(OC)ccc(N4CCOCC4)c3s2)cc1 [Example 68, 4-Methoxy-7-morpholin-4-yl-benzothiazole-2-carboxylic acid [2-(4-methoxy-phenyl)-ethyl]-amide] |
| 174 to 175 | COc1ccc(N2CCOCC2)c2sc(C(=O)NCc3cccs3)nc12 [Example 23, 4-Methoxy-7-morpholin-4-yl-benzothiazole-2-carboxylic acid (thiophen-2-ylmethyl)-amide] |
| 178 to 180 | COc1ccc(N2CCOCC2)c2sc(C(=O)NC[C@H]3CCCC[C@H]3O)nc12 (stereo in doubt) [Example 42, 4-Methoxy-7-morpholin-4-yl-benzothiazole-2-carboxylic acid (2-hydroxy-cyclohexylmethyl)-amide] |
| 144 to 148 | COc1ccc(N2CCOCC2)c2sc(C(=O)NCC3(c4ccccc4)CCOCC3)nc12 [Example 30, 4-Methoxy-7-morpholin-4-yl-benzothiazole-2-carboxylic acid (4-phenyl-tetrahydro-pyran-4-ylmethyl)-amide] |
| 190 to 191 | COc1ccc(N2CCOCC2)c2sc(C(=O)Nc3ccccc3)nc12 [Example 4, 4-Methoxy-7-morpholin-4-yl-benzothiazole-2-carboxylic acid phenylamide] |
| 175 to 176 | COc1ccc(N2CCOCC2)c2sc(C(=O)NCc3ccc(Cl)cc3)nc12 [Example 7, 4-Methoxy-7-morpholin-4-yl-benzothiazole-2-carboxylic acid 4-chloro-benzylamide] |
| 222 to 224 | COc1ccc(N2CCOCC2)c2sc(C(=O)NNC(=O)c3cccnc3)nc12 [Example 44, Nicotinic acid N′-(4-methoxy-7-morpholin-4-yl-benzothiazole-2-carbonyl)-hydrazide] |
| 176 to 178 | COc1ccc(C(=O)CNC(=O)c2nc3c(OC)ccc(N4CCOCC4)c3s2)cc1 [Example 66, 4-Methoxy-7-morpholin-4-yl-benzothiazole-2-carboxylic acid [2-(4-methoxy-phenyl)-2-oxo-ethyl]-amide] |
| 184 to 185 | COc1ccc(N2CCOCC2)c2sc(C(=O)NCCc3ccccn3)nc12 [Example 38, 4-Methoxy-7-morpholin-4-yl-benzothiazole-2-carboxylic acid (2-pyridin-2-yl-ethyl)-amide] |
| 133 to 135 | COc1ccc(N2CCOCC2)c2sc(C(=O)NC[C@@H]3CCCC[C@H]3O)nc12 (stereo in doubt) [Example 43, 4-Methoxy-7-morpholin-4-yl-benzothiazole-2-carboxylic acid (2-hydroxy-cyclohexylmethyl)-amide] |
| 166 to 168 | COc1ccc(N2CCOCC2)c2sc(C(=O)NC(c3ccccc3)c3ccccc3)nc12 [Example 47, 4-Methoxy-7-morpholin-4-yl-benzothiazole-2-carboxylic acid benzhydryl-amide] |
| 151 to 153 | COc1ccc(N2CCOCC2)c2sc(C(=O)NCCc3ccccc3F)nc12 [Example 58, 4-Methoxy-7-morpholin-4-yl-benzothiazole-2-carboxylic acid [2-(2-fluoro-phenyl)-ethyl]-amide] |
| 171 to 172 | COc1ccc(N2CCOCC2)c2sc(C(=O)NCC3CCCO3)nc12 (centres unmarked) [Example 41, 4-Methoxy-7-morpholin-4-yl-benzothiazole-2-carboxylic acid (tetrahydro-furan-2-ylmethyl)-amide] |
| 174 to 175 | COc1ccc(N2CCOCC2)c2sc(C(=O)NC(C)c3csc(C)n3)nc12 (centres unmarked) [Example 80, 4-Methoxy-7-morpholin-4-yl-benzothiazole-2-carboxylic acid [1-(2-methyl-thiazol-4-yl)-ethyl]-amide] |
| 237 to 240 | COc1ccc(N2CCOCC2)c2sc(C(=O)NCCNC(=O)c3ccc(Cl)cc3)nc12 [Example 28, 4-Methoxy-7-morpholin-4-yl-benzothiazole-2-carboxylic acid [2-(4-chloro-benzoylamino)-ethyl]-amide] |

| melting point [°C] | Compound |
| --- | --- |
| 187 to 189 | COc1ccc(N2CCOCC2)c2sc(C(=O)NCc3csc4ccccc34)nc12 [Example 69, 4-Methoxy-7-morpholin-4-yl-benzothiazole-2-carboxylic acid (benzo[b]thiophen-3-ylmethyl)-amide] |
| 206 to 208 | COc1ccc(N2CCOCC2)c2sc(C(=O)Nc3ccc(F)cc3)nc12 [Example 2, 4-Methoxy-7-morpholin-4-yl-benzothiazole-2-carboxylic Acid (4-Fluoro-phenyl)-amide] |
| 180 to 183 | COc1ccccc1C(=O)NCCNC(=O)c1nc2c(OC)ccc(N3CCOCC3)c2s1 [Example 37, 4-Methoxy-7-morpholin-4-yl-benzothiazole-2-carboxylic acid [2-(2-methoxy-benzoylamino)-ethyl]-amide] |
| 171 to 174 | COc1ccc(N2CCOCC2)c2sc(C(=O)NNC(=O)c3ccncc3)nc12 [Example 45, Isonicotinic acid N′-(4-methoxy-7-morpholin-4-yl-benzothiazole-2-carbonyl)-hydrazide] |
| 191 | COc1ccccc1NC(=O)c1nc2c(OC)ccc(N3CCOCC3)c2s1 [Example 12, 4-Methoxy-7-morpholin-4-yl-benzothiazole-2-carboxylic acid (2-methoxy-phenyl)-amide] |
| 148 | COc1ccc(NC(=O)c2nc3c(OC)ccc(N4CCOCC4)c3s2)cc1 [Example 10, 4-Methoxy-7-morpholin-4-yl-benzothiazole-2-carboxylic acid (4-methoxy-phenyl)-amide] |
| 152 to 153 | COc1ccc(N2CCOCC2)c2sc(C(=O)NCc3cccc(F)c3)nc12 [Example 20, 4-Methoxy-7-morpholin-4-yl-benzothiazole-2-carboxylic acid 3-fluoro-benzylamide] |
| 147 | COc1ccc(N2CCOCC2)c2sc(C(=O)NCCCc3ccccc3)nc12 [Example 40, 4-Methoxy-7-morpholin-4-yl-benzothiazole-2-carboxylic acid (3-phenyl-propyl)-amide] |
| 140 to 144 | COc1cccc(CNC(=O)c2nc3c(OC)ccc(N4CCOCC4)c3s2)c1 [Example 27, 4-Methoxy-7-morpholin-4-yl-benzothiazole-2-carboxylic acid 3-methoxy-benzylamide] |
| 190 to 193 | COc1ccc(N2CCOCC2)c2sc(C(=O)NCc3ccc4c(c3)OCO4)nc12 [Example 14, 4-Methoxy-7-morpholin-4-yl-benzothiazole-2-carboxylic acid (benzo[1,3]dioxol-5-ylmethyl)-amide] |
| 146 to 148 | COc1cc(OC)cc(C(=O)NNC(=O)c2nc3c(OC)ccc(N4CCOCC4)c3s2)c1 [Example 56, 3,5-Dimethoxy-benzoic acid N′-(4-methoxy-7-morpholin-4-yl-benzothiazole-2-carbonyl)-hydrazide] |
| 229 to 232 | COc1ccc(N2CCOCC2)c2sc(C(=O)NCC(=O)c3ccsc3)nc12 [Example 79, 4-Methoxy-7-morpholin-4-yl-benzothiazole-2-carboxylic acid (2-oxo-2-thiophen-3-yl-ethyl)-amide] |
| 129 to 131 | COc1ccc(N2CCOCC2)c2sc(C(=O)NCCc3ccccc3C)nc12 [Example 74, 4-Methoxy-7-morpholin-4-yl-benzothiazole-2-carboxylic acid (2-o-tolyl-ethyl)-amide] |
| 231 to 233 | COc1ccc(N2CCOCC2)c2sc(C(=O)NCCN3C(=O)c4ccccc4C3=O)nc12 [Example 34, 4-Methoxy-7-morpholin-4-yl-benzothiazole-2-carboxylic acid [2-(1,3-dioxo-1,3-dihydro-isoindol-2-yl)-ethyl]-amide] |
| 197 to 200 | COc1ccc(N2CCOCC2)c2sc(C(=O)NCC(=O)c3ccccc3)nc12 [Example 39, 4-Methoxy-7-morpholin-4-yl-benzothiazole-2-carboxylic acid (2-oxo-2-phenyl-ethyl)-amide] |
| 177 to 181 | COc1ccc(N2CCOCC2)c2sc(C(=O)Nc3ccccn3)nc12 [Example 19, 4-Methoxy-7-morpholin-4-yl-benzothiazole-2-carboxylic acid pyridin-2-ylamide] |
| 199 to 205 | COc1ccc(N2CCOCC2)c2sc(C(=O)NCCN3Cc4ccccc4C3=O)nc12 [Example 29, 4-Methoxy-7-morpholin-4-yl benzothiazole-2-carboxylic acid [2-(1-oxo-1,3-dihydro-isoindol-2-yl)-ethyl]-amide] |
| 152 to 155 | COc1ccc(N2CCOCC2)c2sc(C(=O)NCC3Cc4ccccc4C(=O)N3)nc12 (centres unmarked) [Example 36, 4-Methoxy-7-morpholin-4-yl-benzothiazole-2-carboxylic acid (1-oxo-1,2,3,4-tetrahydro-isoquinolin-3-ylmethyl)-amide] |
| 144 to 146 | COc1ccc(N2CCOCC2)c2sc(C(=O)NC(C)Cc3cc4ccccc4o3)nc12 (centres unmarked) [Example 84, 4-Methoxy-7-morpholin-4-yl-benzothiazole-2-carboxylic acid (2-benzofuran-2-yl-1-methyl-ethyl)-amide] |
